DBAASP
Converted amounts (≈) assume the structure as drawn.

Key:
Experiment in all cases: ≥ marks a high value that may be exact or a test limit, other limits are often not marked, values filed in µg/mL are converted to µM
[1] = system: Pseudomonas aeruginosa PAO1
[2] = system: Klebsiella pneumoniae ATCC 13883
[3] = system: Staphylococcus aureus USA 300
[4] = system: Escherichia coli ATCC 25922
Staphylococcus aureus = system: Staphylococcus aureus
Pasteurella multocida = system: Pasteurella multocida
Bacillus cereus = system: Bacillus cereus
[5] = system: Staphylococcus epidermidis
Leuconostoc lactis = system: Leuconostoc lactis
Listeria innocua = system: Listeria innocua
Escherichia coli = system: Escherichia coli
Streptococcus uberis = system: Streptococcus uberis
Micrococcus luteus = system: Micrococcus luteus
Enterococcus faecalis = system: Enterococcus faecalis
Klebsiella pneumoniae = system: Klebsiella pneumoniae
Serratia marcescens = system: Serratia marcescens
Candida albicans = system: Candida albicans
Salmonella typhimurium = system: Salmonella typhimurium
Proteus mirabilis = system: Proteus mirabilis
Pseudomonas aeruginosa = system: Pseudomonas aeruginosa
Shigella dysenteriae = system: Shigella dysenteriae
[6] = system: Candida albicans ATCC 2002
Enterococcus faecium = system: Enterococcus faecium
[7] = system: Staphylococcus aureus ATCC 2592
Acinetobacter baumannii = system: Acinetobacter baumannii
[8] = system: Pseudomonas aeruginosa CMCCB 10104
[9] = system: Staphylococcus aureus ATCC 25923

## CC[C@H](C)[C@H](NC(=O)[C@H](CCCCN)NC(=O)[C@H](CCC(N)=O)NC(=O)[C@@H](NC(=O)[C@@H](NC(=O)[C@H](CCCN=C(N)N)NC(=O)[C@H](CCCCN)NC(=O)[C@H](Cc1ccccc1)NC(=O)CN)[C@@H](C)CC)C(C)C)C(=O)N[C@@H](CCCN=C(N)N)C(=O)N[C@@H](CC(=O)O)C(=O)N[C@@H](Cc1ccccc1)C(=O)N[C@@H](CC(C)C)C(=O)N[C@@H](CCCN=C(N)N)C(=O)N[C@@H](CC(N)=O)C(=O)N[C@@H](CC(C)C)C(=O)N[C@H](C(N)=O)C(C)C [GFKRIVQKIRDFLRNLV]
[1]
  MIC: 25 µM (≈ 52.5 µg/mL)
[2]
  MIC: 3.1 µM (≈ 6.51 µg/mL)
[3]
  MIC: 2.2 µM (≈ 4.62 µg/mL)
[4]
  MIC: 4.4 µM (≈ 9.25 µg/mL)

## CC[C@H](C)[C@H](NC(=O)[C@H](C)NC(=O)[C@@H]1CCCN1C(=O)[C@@H](NC(=O)[C@@H](NC(=O)[C@H](Cc1cnc[nH]1)NC(=O)[C@H](CO)NC(=O)[C@H](C)NC(=O)[C@@H](NC(=O)[C@H](CCCCN)NC(=O)[C@H](C)NC(=O)[C@H](CC(C)C)NC(=O)[C@@H](NC(=O)CNC(=O)[C@H](Cc1ccccc1)NC(=O)[C@H](CC(C)C)NC(=O)CN)C(C)C)C(C)C)C(C)C)C(C)C)C(=O)N[C@@H](C)C(=O)N[C@@H](CCC(=O)O)C(=O)N[C@@H](Cc1cnc[nH]1)C(=O)N[C@@H](Cc1ccccc1)C(=O)N[C@@H](CCC(N)=O)C(=O)N[C@@H](C)C(N)=O [GLFGVLAKVASHVVPAIAEHFQA]
Staphylococcus aureus
  MIC: 21.2 µM (≈ 50 µg/mL)
Pasteurella multocida
  MIC: ≥ 42.3 µM
Bacillus cereus
  MIC: ≥ 42.3 µM
[5]
  MIC: ≥ 42.3 µM
Leuconostoc lactis
  MIC: ≥ 42.3 µM
Listeria innocua
  MIC: ≥ 42.3 µM
Escherichia coli
  MIC: > 42.3 µM
Streptococcus uberis
  MIC: 2.54 µM (≈ 6 µg/mL)
Micrococcus luteus
  MIC: ≥ 42.3 µM
Enterococcus faecalis
  MIC: ≥ 42.3 µM

## CC[C@H](C)[C@H](NC(=O)[C@@H](NC(=O)[C@H](CO)NC(=O)[C@H](C)NC(=O)[C@@H](NC(=O)[C@H](CCCCN)NC(=O)[C@H](CCCCN)NC(=O)[C@@H](NC(=O)[C@@H](NC(=O)[C@H](CCCCN)NC(=O)[C@H](Cc1ccccc1)NC(=O)[C@H](CC(C)C)NC(=O)CN)C(C)C)[C@@H](C)CC)C(C)C)C(C)C)C(=O)NCC(=O)NCC(=O)N[C@@H](CC(C)C)C(N)=O [GLFKVIKKVASVIGGL]
Staphylococcus aureus
  MIC: 15.3 µM (≈ 25 µg/mL)
Pasteurella multocida
  MIC: ≥ 61.4 µM
Bacillus cereus
  MIC: 30.7 µM (≈ 50 µg/mL)
[5]
  MIC: 7.37 µM (≈ 12 µg/mL)
Leuconostoc lactis
  MIC: 3.68 µM (≈ 6 µg/mL)
Listeria innocua
  MIC: ≥ 61.4 µM
Escherichia coli
  MIC: > 61.4 µM
Streptococcus uberis
  MIC: 30.7 µM (≈ 50 µg/mL)
Micrococcus luteus
  MIC: 7.37 µM (≈ 12 µg/mL)

## CC[C@H](C)[C@H](NC(=O)[C@H](C)NC(=O)[C@H](CCSC)NC(=O)CNC(=O)[C@H](CCCCN)NC(=O)[C@@H](NC(=O)[C@H](CO)NC(=O)[C@H](CC(=O)O)NC(=O)[C@H](CC(C)C)NC(=O)[C@H](CC(C)C)NC(=O)CN)[C@@H](C)CC)C(=O)N[C@@H](CO)C(=O)N[C@@H](C)C(=O)NCC(=O)N[C@@H](CCCCN)C(=O)NCC(=O)N[C@@H](C)C(=O)N[C@@H](CC(C)C)C(=O)N[C@@H](CCC(N)=O)C(=O)N[C@@H](CC(N)=O)C(=O)N[C@@H](CC(C)C)C(=O)N[C@@H](CC(C)C)C(=O)N[C@@H](CCCCN)C(=O)N[C@H](C(=O)N[C@@H](C)C(=O)N[C@@H](CO)C(=O)N[C@H]1CSSC[C@@H](C(=O)O)NC(=O)[C@H]([C@@H](C)O)NC(=O)[C@H](CCCCN)NC(=O)[C@H](CC(=O)O)NC(=O)[C@H](CC(C)C)NC(=O)[C@H](CCCCN)NC1=O)C(C)C [GLLDSIKGMAISAGKGALQNLLKVASCKLDKTC]
Klebsiella pneumoniae
  MIC: 2.99 µM (≈ 9.99 µg/mL)
Serratia marcescens
  MIC: ≥ 59.7 µM
Candida albicans
  MIC: 29.9 µM (≈ 99.9 µg/mL)
Salmonella typhimurium
  MIC: 6.72 µM (≈ 22.5 µg/mL)
Proteus mirabilis
  MIC: ≥ 59.7 µM
Micrococcus luteus
  MIC: 0.747 µM (≈ 2.5 µg/mL)
Pseudomonas aeruginosa
  MIC: 22.4 µM (≈ 75 µg/mL)
Shigella dysenteriae
  MIC: 2.99 µM (≈ 9.99 µg/mL)

## CC(C)C[C@H](NC(=O)[C@H](CC(C)C)NC(=O)[C@H](CCCCN)NC(=O)CNC(=O)[C@H](C)NC(=O)[C@H](C)NC(=O)[C@H](CCCCN)NC(=O)[C@H](CC(C)C)NC(=O)[C@H](C)NC(=O)[C@H](CO)NC(=O)[C@H](CC(C)C)NC(=O)[C@H](CC(C)C)NC(=O)CN)C(N)=O [GLLSALKAAGKLL]
[1]
  MIC: > 25 µM
[3]
  MIC: 12.5 µM (≈ 15.7 µg/mL)
[4]
  MIC: 12.5 µM (≈ 15.7 µg/mL)

## CC[C@H](C)[C@H](NC(=O)[C@@H](NC(=O)[C@@H]1CCCN1C(=O)[C@@H](NC(=O)[C@@H](NC(=O)[C@H](Cc1cnc[nH]1)NC(=O)[C@@H]1CCCN1C(=O)[C@H](CC(C)C)NC(=O)[C@@H](NC(=O)[C@H](Cc1cnc[nH]1)NC(=O)[C@H](CCCCN)NC(=O)[C@H](C)NC(=O)[C@@H](NC(=O)[C@H](CO)NC(=O)CNC(=O)[C@H](CC(C)C)NC(=O)[C@@H](NC(=O)[C@H](CO)NC(=O)[C@H](CC(C)C)NC(=O)[C@H](CC(C)C)NC(=O)CN)C(C)C)C(C)C)C(C)C)C(C)C)C(C)C)C(C)C)C(=O)N[C@@H](C)C(=O)N[C@@H](CCC(=O)O)C(=O)N[C@@H](CCCCN)C(=O)N[C@@H](CC(C)C)C(N)=O [GLLSVLGSVAKHVLPHVVPVIAEKL]
Staphylococcus aureus
  MIC: > 38.8 µM
Pasteurella multocida
  MIC: ≥ 38.8 µM
Bacillus cereus
  MIC: ≥ 38.8 µM
[5]
  MIC: ≥ 38.8 µM
Leuconostoc lactis
  MIC: 2.33 µM (≈ 6 µg/mL)
Listeria innocua
  MIC: 19.4 µM (≈ 50 µg/mL)
Escherichia coli
  MIC: > 38.8 µM
Streptococcus uberis
  MIC: 19.4 µM (≈ 50 µg/mL)
Micrococcus luteus
  MIC: 9.7 µM (≈ 25 µg/mL)

## CC[C@H](C)[C@H](NC(=O)CNC(=O)[C@H](CO)NC(=O)[C@@H](NC(=O)[C@H](CC(C)C)NC(=O)[C@H](CCC(=O)O)NC(=O)[C@H](CO)NC(=O)[C@H](C)NC(=O)[C@H](CCCCN)NC(=O)[C@H](CCC(=O)O)NC(=O)[C@H](CCCCN)NC(=O)[C@@H](NC(=O)[C@H](CCCCN)NC(=O)[C@H](CCC(=O)O)NC(=O)[C@H](Cc1c[nH]c2ccccc12)NC(=O)[C@H](CC(C)C)NC(=O)CN)[C@@H](C)CC)C(C)C)C(=O)N[C@H](C(=O)N[C@@H](CCC(=O)O)C(=O)NCC(=O)N[C@H](C(=O)N[C@@H](CCCCN)C(=O)O)C(C)C)C(C)C [GLWEKIKEKASELVSGIVEGVK]
Staphylococcus aureus
  MIC: > 41.7 µM
Pasteurella multocida
  MIC: ≥ 41.7 µM
Bacillus cereus
  MIC: ≥ 41.7 µM
[5]
  MIC: ≥ 41.7 µM
Leuconostoc lactis
  MIC: ≥ 41.7 µM
Listeria innocua
  MIC: ≥ 41.7 µM
Escherichia coli
  MIC: > 41.7 µM
Streptococcus uberis
  MIC: ≥ 41.7 µM
Micrococcus luteus
  MIC: 1.25 µM (≈ 3 µg/mL)

## CC[C@H](C)[C@H](NC(=O)[C@H](CCCCN)NC(=O)[C@H](CS)NC(=O)[C@H](CC(C)C)NC(=O)CNC(=O)CNC(=O)[C@H](C)NC(=O)[C@@H](NC(=O)[C@H](CC(N)=O)NC(=O)[C@H](CCCCN)NC(=O)[C@H](CC(C)C)NC(=O)[C@@H](NC(=O)[C@H](CC(N)=O)NC(=O)[C@H](C)NC(=O)[C@H](Cc1c[nH]c2ccccc12)NC(=O)CN)[C@@H](C)O)C(C)C)C(=O)N[C@H](C(=O)NCC(=O)N[C@@H](C)C(=O)N[C@@H](C)C(=O)O)[C@@H](C)O [GWANTLKNVAGGLCKITGAA]
Klebsiella pneumoniae
  MIC: > 51.4 µM
[6]
  MIC: ≥ 38.6 µM
Serratia marcescens
  MIC: ≥ 51.4 µM
Enterococcus faecium
  MIC: 19.3 µM (≈ 37.5 µg/mL)
[7]
  MIC: 19.3 µM (≈ 37.5 µg/mL)
Acinetobacter baumannii
  MIC: 19.3 µM (≈ 37.5 µg/mL)
[4]
  MIC: > 51.4 µM

## CC[C@H](C)[C@H](NC(=O)[C@H](Cc1ccccc1)NC(=O)[C@@H](N)CCCN=C(N)N)C(=O)N[C@@H](Cc1ccc(O)cc1)C(=O)N[C@@H](CCSC)C(=O)N[C@@H](CCCCN)C(=O)NCC(=O)N[C@@H](Cc1ccccc1)C(=O)NCC(=O)N[C@@H](CCCCN)C(=O)N1CCC[C@H]1C(=O)N[C@@H](CCCN=C(N)N)C(=O)N[C@@H](Cc1ccccc1)C(=O)NCC(=O)N[C@@H](CCCCN)C(=O)N[C@@H](CCCN=C(N)N)C(=O)O [RFIYMKGFGKPRFGKR]
[6]
  MIC: 25.1 µM (≈ 50 µg/mL)
[8]
  MIC: 12.6 µM (≈ 25 µg/mL)
[9]
  MIC: 12.6 µM (≈ 25 µg/mL)
[4]
  MIC: 50.3 µM (≈ 100 µg/mL)
